Laboratory results from US9453014B2, “Cyclic amide derivatives as inhibitors of 11-β-hydroxysteroid dehydrogenase and uses thereof” (CONNEXIOS LIFE SCIENCES PVT. LTD., priority 2011, dated 2016).

Molecular target: T1, human full length HSD11 β 1 (Homo sapiens, UniProt P28845)
T1 construct: transient expression of human full length HSD11 β 1 expression vector; host or cells: CHO cells (transient transfection)
Assay: In Vitro HSD11β1 Inhibition Assay
Assay type: cell-based
Details: CHO cells transiently expressing human HSD11β1; 200 nM cortisone+500 uM NADPH overnight; cortisone to cortisol by LC/MS-MS; read-out: 11βHSD1 (IC50)
Method in brief: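 CHO cells transiently transfected with human full-length HSD11β1 were re-seeded after 24 h and, 24 h later, incubated overnight with 200 nM cortisone plus 500 uM NADPH and inhibitor. Cortisone-to-cortisol conversion was measured by LC/MS-MS. IC50 from an 8-point log concentration–inhibition curve.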

T1 sequence (P28845 whole entry): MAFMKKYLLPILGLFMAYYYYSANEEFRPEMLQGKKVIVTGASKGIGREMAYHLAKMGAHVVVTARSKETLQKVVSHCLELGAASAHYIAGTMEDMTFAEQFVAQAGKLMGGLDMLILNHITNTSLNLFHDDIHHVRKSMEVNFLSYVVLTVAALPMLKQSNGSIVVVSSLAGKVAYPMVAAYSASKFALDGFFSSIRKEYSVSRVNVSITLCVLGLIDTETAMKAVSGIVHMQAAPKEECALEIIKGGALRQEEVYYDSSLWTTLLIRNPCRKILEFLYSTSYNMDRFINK

SMILES	IC50 [nM]
Cc1ccnc2[nH]cc(C(CC(=O)N3CCC(C(=O)O)C4CCCCC43)C(C)C)c12 (stereo not drawn) [Example 180, 1-[4-methyl-3-(4-methyl-1H-pyrrolo[2,3-b]pyridin-3-yl)pentanoyl]decahydroquinoline-4-carboxylic acid]	> 250
COC(=O)C1CCN(C(=O)CC(C)c2c[nH]c3ccccc23)C2CCCCC12 (stereo not drawn) [Example 102, methyl 1-[3-(1H-indol-3-yl)butanoyl]decahydroquinoline-4-carboxylate]	> 250
O=C(O)C1CCN(C(=O)CC(c2ccc(F)cc2)c2c[nH]c3cccc(F)c23)C2CCCCC12 (single isomer, unassigned) [Compound 226, 1-[3-(4-fluoro-1H-indol-3-yl)-3-(4-fluorophenyl)propanoyl]decahydroquinoline-4-carboxylic acid]	> 250
CC(CC(=O)N1CCC(C(=O)O)C2CCCCC21)c1c[nH]c2cccc(Cl)c12 (stereo not drawn) [Example 158, 1-[3-(4-chloro-1H-indol-3-yl)butanoyl]decahydroquinoline-4-carboxylic acid]	> 250
CC(CC(=O)N1CCCC2(C(=O)O)CCCCC12)c1c[nH]c2cccc(Cl)c12 (stereo not drawn) [Example 129, 1-[3-(4-chloro-1H-indol-3-yl)butanoyl]octahydroquinoline-4a(2H)-carboxylic acid]	> 250
Cn1cc(C(C)(C)C(=O)N2CCCC3CCCCC32)c2ccccc21 (stereo not drawn) [Compound 2, 2-methyl-2-(1-methyl-1H-indol-3-yl)-1-(octahydroquinolin-1(2H)-yl)propan-1-one]	> 250
CC1CCN(C(=O)CCc2c[nH]c3ccccc23)C2CCCCC12 (stereo not drawn) [Compound 12, 3-(1H-indol-3-yl)-1-(4-methyloctahydroquinolin-1(2H)-yl)propan-1-one]	> 250
O=C(CCc1c[nH]c2ccccc12)N1CCC2CCCCC2C1 (stereo not drawn) [Compound 21, 3-(1H-indol-3-yl)-1-(octahydroisoquinolin-2(1H)-yl)propan-1-one]	> 250
Cc1cccc2c1c(CCC(=O)N1CCO[C@@H]3CCCC[C@H]31)cn2C (single isomer, unassigned) [Compound 62, 3-(1,4-dimethyl-1H-indol-3-yl)-1-[(trans-4a,8a)-octahydro-4H-1,4-benzoxazin-4-yl]propan-1-one]	> 250
CCOC(=O)C12CCCCC1N(C(=O)CC(C)c1nc3ccccc3s1)CCC2 (stereo not drawn) [Example 141, ethyl 1-[3-(1,3-benzothiazol-2-yl)butanoyl]octahydroquinoline-4a(2H)-carboxylate]	> 250
Cc1cccc2c1c(CCC(=O)N1CC(C)(C)OC3CCCCC31)cn2C (stereo not drawn) [Compound 70, 3-(1,4-dimethyl-1H-indol-3-yl)-1-(2,2-dimethyloctahydro-4H-1,4-benzoxazin-4-yl)propan-1-one]	> 250
O=C(O)C1CCN(C(=O)CC(c2ccccc2)c2nc3ccccc3s2)C2CCCCC12 (stereo not drawn) [Example 152, 1-[3-(1,3-benzothiazol-2-yl)-3-phenylpropanoyl]decahydroquinoline-4-carboxylic acid]	> 250
COC(=O)C1CCN(C(=O)CC(c2c[nH]c3ccccc23)C(C)C)C2CCCCC12 (stereo not drawn) [Example 101, methyl 1-[3-(1H-indol-3-yl)-4-methylpentanoyl]decahydroquinoline-4-carboxylate]	> 250
Cn1nc(CCC(=O)N2CCCC3C(C(=O)O)CCCC32)c2c(C3CC3)cccc21 (stereo not drawn) [Compound 268, 1-(3-(4-cyclopropyl-1-methyl-1H-indazol-3-yl)propanoyl) decahydroquinoline-5-carboxylic acid]	> 250
CC(C)C(CC(=O)N1CCOC2CCCCC21)c1cn(C)c2ccccc12 (stereo not drawn) [Example 134, 4-methyl-3-(1-methyl-1H-indol-3-yl)-1-(octahydro-4H-1,4-benzoxazin-4-yl)pentan-1-one]	> 250

Second part, the compound after the results:

IC50 [nM]	SMILES
> 250	Cc1cccc2[nH]cc(C(C)CC(=O)N3CCCC4(C#N)CCCCC34)c12 (stereo not drawn) [Example 149, 1-[3-(4-methyl-1H-indol-3-yl)butanoyl]octahydroquinoline-4a(2H)-carbonitrile]
< 100	CC(C)C(CC(=O)N1CCCC2CCCCC21)c1c[nH]c2ccccc12 (stereo not drawn) [Example 95, 3-(1H-indol-3-yl)-4-methyl-1-(octahydroquinolin-1(2H)-yl)pentan-1-one]
> 250	O=C(CC(O)(c1c[nH]c2ccccc12)C(F)(F)F)N1CCCC2CCCCC21 (stereo not drawn) [Example 108, 4,4,4-trifluoro-3-hydroxy-3-(1H-indol-3-yl)-1-(octahydroquinolin-1(2H)-yl)butan-1-one]
150 to 200	CC(CC(=O)N1CCCC2C(C(=O)O)CCCC21)c1c[nH]c2cccc(-c3cccc(F)c3)c12 (stereo not drawn) [Compound 259, 1-{3-[4-(3-fluorophenyl)-1H-indol-3-yl]butanoyl}decahydroquinoline-5-carboxylic acid]
< 100	CC(CC(=O)N1CCCC2CCCCC21)c1nc2c(Cl)cccc2s1 (stereo not drawn) [Example 173, 3-(4-chloro-1,3-benzothiazol-2-yl)-1-(octahydroquinolin-1(2H)-yl)butan-1-one]
< 100	O=C(CCc1c[nH]c2ncccc12)N1CCCC2CCCCC21 (stereo not drawn) [Example 84, 1-(octahydroquinolin-1(2H)-yl)-3-(1H-pyrrolo[2,3-b]pyridin-3-yl)propan-1-one]
< 100	O=C(O)C1CCN(C(=O)CC(c2ccccc2)c2c[nH]c3cccc(F)c23)C2CCCCC12 (single isomer, unassigned) [Example 161, 1-[3-(4-fluoro-1H-indol-3-yl)-3-phenylpropanoyl]decahydroquinoline-4-carboxylic acid]
< 100	Cn1cc(CCC(=O)N2CCCC3CCCCC32)c2ccccc21 (stereo not drawn) [Compound 13, 3-(1-methyl-1H-indol-3-yl)-1-(octahydroquinolin-1(2H)-yl)propan-1-one]
150 to 200	COC12CCCCC1N(C(=O)CC(C)c1c[nH]c3ncccc13)CCC2 (stereo not drawn) [Example 153, 1-(4a-methoxyoctahydroquinolin-1(2H)-yl)-3-(1H-pyrrolo[2,3-b]pyridin-3-yl)butan-1-one]
< 100	CC(CC(=O)N1CCCC2CCCCC21)c1c[nH]c2ccccc12 (single isomer, unassigned) [Example 120, 3-(1H-indol-3-yl)-1-(octahydroquinolin-1(2H)-yl)butan-1-one]
< 100	O=C(CCc1c[nH]c2cccc(F)c12)N1CCOC2CCCCC21 (stereo not drawn) [Compound 72, 3-(4-fluoro-1H-indol-3-yl)-1-(octahydro-4H-1,4-benzoxazin-4-yl)propan-1-one]
< 100	CC(CC(=O)N1CCCC2CCCCC21)c1c[nH]c2ncccc12 (single isomer, unassigned) [Example 145, 1-(octahydroquinolin-1(2H)-yl)-3-(1H-pyrrolo[2,3-b]pyridin-3-yl)butan-1-one]
< 100	O=C(CSc1c[nH]c2ccccc12)N1CCCC2CCCCC21 (stereo not drawn) [Compound 5, 2-(1H-indol-3-ylsulfanyl)-1-(octahydroquinolin-1(2H)-yl)ethanone]
< 100	CC12CCCCC1N(C(=O)CCc1nc3ccccc3s1)CCC2 (stereo not drawn) [Example 78, 3-(1,3-benzothiazol-2-yl)-1-(4a-methyloctahydroquinolin-1(2H)-yl)propan-1-one]
150 to 200	Cn1cc(C2CC2C(=O)N2CCCC3CCCCC32)c2ccccc21 (stereo not drawn) [Example 97, [2-(1-methyl-1H-indol-3-yl)cyclopropyl](octahydroquinolin-1(2H)-yl)methanone]
